Our source for the EC50 and IC50 values is patent US7888464B2, “Hepatitis C virus inhibitors” (Bristol-Myers Squibb Company, priority 2006, dated 2011).

Test [1] has as its system HCV replicon (strain 1b) in HUH-7 cells. The experiment in a line: HCV replicon FRET assay. In kind it is cell-based. Conditions: Hepatitis C virus, Huh-7, read-out: EC50 in the replicon FRET assay. From the text:
An HCV replicon whole cell system was established as described by Lohmann V, Korner F, Koch J, Herian U, Theilmann L, Bartenschlager R., Science 285(5424): 110-3 (1999). This system enabled us to evaluate the effects of our HCV Protease compounds on HCV RNA replication. Briefly, using the HCV strain 1b sequence described in the Lohmann paper (Assession number: AJ238799), an HCV cDNA was synthesized by Operon Technologies, Inc. (Alameda, Calif.), and the full-length replicon was then assembled in plasmid pGem9zf(+) (Promega, Madison, Wis.) using standard molecular biology techniques. The replicon consists of (i) the HCV 5′ UTR fused to the first 12 amino acids of the capsid protein, (ii) the neomycin phosphotransferase gene (neo), (iii) the IRES from encephalomyocarditis virus (EMCV), and (iv) HCV NS3 to NS5B genes and the HCV 3′ UTR. Plasmid DNAs were linearized with ScaI and RNA transcripts were synthesized in vitro using the T7 MegaScript transcription kit (Ambion, Austin, Tex.) according to manufacturer's directions. In vitro transcripts of the cDNA were transfected into the human hepatoma cell line, HUH-7. […] Resulting cell lines were characterized for positive and negative strand RNA production and protein production over time.
The HCV replicon FRET assay was developed to monitor the inhibitory effects of compounds described in the disclosure on HCV viral replication. HUH-7 cells, constitutively expressing the HCV replicon, were grown in Dulbecco's Modified Eagle Media (DMEM) (Gibco-BRL) containing 10% Fetal calf serum (FCS) (Sigma) and 1 mg/ml G418 (Gibco-BRL). Cells were seeded the night before (1.5×10^4 cells/well) in 96-well tissue-culture sterile plates. Compound and no compound controls were prepared in DMEM containing 4% FCS, 1:100 Penicillin/Streptomysin (Gibco-BRL), 1:100 L-glutamine and 5% DMSO in the dilution plate (0.5% DMSO final concentration in the assay). Compound/DMSO mixes were added to the cells and incubated for 4 days at 37° C. After 4 days, cells were first assessed for cytotoxicity using alamar Blue (Trek Diagnotstic Systems) for a CC50 reading. The toxicity of compound (CC50) was determined by adding 1/10th volume of alamar Blue to the media incubating the cells. After 4 h, the fluorescence signal from each well was read, with an excitation wavelength at 530 nm and an emission wavelength of 580 nm, using the Cytofluor Series 4000 (Perspective Biosystems). Plates were then rinsed thoroughly with Phosphate-Buffered Saline (PBS) (3 times 150 μl). The cells were lysed with 25 μl of a lysis assay reagent containing an HCV protease substrate (5× cell Luciferase cell culture lysis reagent (Promega #E153A) diluted to 1× with distilled water, NaCl added to 150 mM final, the FRET peptide substrate (as described for the enzyme assay above) diluted to 10 μM final from a 2 mM stock in 100% DMSO. The plate was then placed into the Cytofluor 4000 instrument which had been set to 340 nm excitation/490 nm emission, automatic mode for 21 cycles and the plate read in a kinetic mode. EC50 determinations were carried out as described for the IC50 determinations.

Test [2] deals with T1, human neutrophil elastase (HNE) (Homo sapiens, UniProt P08246).
T1 construct: purchased Sigma, EMDbiosciences
T1 sequence (P08246 30-267): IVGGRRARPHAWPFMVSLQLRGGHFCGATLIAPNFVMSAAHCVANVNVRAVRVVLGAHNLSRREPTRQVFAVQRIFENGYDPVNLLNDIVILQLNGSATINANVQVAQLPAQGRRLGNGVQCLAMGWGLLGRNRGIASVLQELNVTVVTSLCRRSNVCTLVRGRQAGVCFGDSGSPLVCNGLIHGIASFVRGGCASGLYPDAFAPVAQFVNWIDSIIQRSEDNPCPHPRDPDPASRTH
Description: Specificity assay, neutrophil elastase. In kind it is biochemical. The conditions noted are these: read-out: HLE activity in the specificity assays. How it is done: (§1) The specificities of compounds of the present disclosure were determined against a variety of serine proteases: human neutrophil elastase (HNE), porcine pancreatic elastase (PPE) and human pancreatic chymotrypsin and one cysteine protease: human liver cathepsin B. In all cases a 96-well plate format protocol using a fluorometric Amino-Methyl-Coumarin (AMC) substrate specific for each enzyme was used as described previously (PCT Patent Application No. WO 00/09543) with some modifications to the serine protease assays. All enzymes were purchased from Sigma, EMDbiosciences while the substrates were from Bachem, Sigma and EMDbiosciences.
(§2) Compound concentrations varied from 100 to 0.4 μM depending on their potency. The enzyme assays were each initiated by addition of substrate to enzyme-inhibitor pre-incubated for 10 min at room temperature and hydrolysis to 15% conversion as measured on cytofluor.
50 mM Tris-HCl, pH 8.0, 50 mM NaCl, 0.1 mM EDTA, 3% DMSO, 0.02% Tween-20, 5 μM succ-AAPV-AMC and 20 nM HNE or 8 nM PPE;
(§3) The percentage of inhibition was calculated using the formula: [1−((UVinh−UVblank)/(UVctl−UVblank))]×100
(§4) A non-linear curve fit was applied to the inhibition-concentration data, and the 50% effective concentration (IC50) was calculated by the use of Excel XLfit software.

Test [3] concerns human pancreatic chymotrypsin. Description: Specificity assay, chymotrypsin. In kind it is biochemical. The conditions noted are these: read-out: Chymotrypsin activity in the specificity assays. How it is done: as §1, §2
50 mM Tris(hydroxymethyl)aminomethane hydrochloride (Tris-HCl) pH 8, 0.5 M Sodium Sulfate (Na2SO4), 50 mM NaCl, 0.1 mM EDTA, 3% DMSO, 0.01% Tween-20 with 5 μM LLVY-AMC and 1 nM Chymotrypsin.
as §3, §4

Take `C=C[C@@H]1C[C@]1(NC(=O)[C@@H]1C[C@@](O)(c2ccc(-c3ccccc3)cc2)CN1C(=O)[C@@H](NC(=O)OC(C)(C)C)C(C)(C)C)C(=O)NS(=O)(=O)C1CC1` [Compound 3]: the 50% effective concentration (EC50) in test [1] is 0.011 µM. Further, the values for the IC50 in test [2] and in test [3] were 82 µM and 75 µM, respectively.
